Columns and labels:
Assay in all cases: relative viability (nuclei count vs DMSO), 5 days (fraction); higher = more cells survive
[1] = compound: CC1=CC=C(C=C1)C(=O)CN2C3=C(CCCC3)SC2=N [Pifithrin_alpha] + CC(=O)Nc1cccc(-n2c(=O)n(C3CC3)c(=O)c3c(Nc4ccc(I)cc4F)n(C)c(=O)c(C)c32)c1 [Trametinib] (partner 0.02 µM)
Summary of the method: (§1)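 Medians of duplicate plates are given as relative viability. That measure is the nuclei count in treated wells divided by the count in vehicle wells. Counts were taken on 4× images of lung cancer cell lines in 1536-well plates, 5 days after pin-tool dosing the day after seeding with one drug alone or a fixed anchor-drug dose plus five library-drug doses (not always all listed) in √10 steps.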

[2] = compound: CC1=CC=C(C=C1)C(=O)CN2C3=C(CCCC3)SC2=N [Pifithrin_alpha] + C[C@@H](Oc1cc(-c2cnn(C3CCNCC3)c2)cnc1N)c1c(Cl)ccc(F)c1Cl [Crizotinib] (partner 1 µM)
Summary of the method: as §1

Axitinib + Pictilisib = compound: CNC(=O)c1ccccc1Sc1ccc2c(/C=C/c3ccccn3)n[nH]c2c1 [Axitinib] + CS(=O)(=O)N1CCN(Cc2cc3nc(-c4cccc5[nH]ncc45)nc(N4CCOCC4)c3s2)CC1 [Pictilisib] (partner 1 µM)
Summary of the method: as §1

Axitinib + Olaparib = compound: CNC(=O)c1ccccc1Sc1ccc2c(/C=C/c3ccccn3)n[nH]c2c1 [Axitinib] + O=C(c1cc(Cc2n[nH]c(=O)c3ccccc23)ccc1F)N1CCN(C(=O)C2CC2)CC1 [Olaparib] (partner 8 µM)
Summary of the method: as §1

| Cell Line | relative viability ([1]; first compound 1 µM) | relative viability ([1]; first compound 3.162 µM) | relative viability ([1]; first compound 10 µM) | relative viability ([1]; first compound 31.62 µM) | relative viability ([1]; first compound 100 µM) | relative viability ([2]; first compound 1 µM) | relative viability ([2]; first compound 3.162 µM) | relative viability ([2]; first compound 10 µM) | relative viability ([2]; first compound 31.62 µM) | relative viability ([2]; first compound 100 µM) | relative viability (Axitinib + Pictilisib; first compound 0.005 µM) | relative viability (Axitinib + Pictilisib; first compound 0.01581 µM) | relative viability (Axitinib + Pictilisib; first compound 0.05 µM) | relative viability (Axitinib + Pictilisib; first compound 0.1581 µM) | relative viability (Axitinib + Pictilisib; first compound 0.5 µM) | relative viability (Axitinib + Olaparib; first compound 0.005 µM) | relative viability (Axitinib + Olaparib; first compound 0.01581 µM) | relative viability (Axitinib + Olaparib; first compound 0.05 µM) | relative viability (Axitinib + Olaparib; first compound 0.1581 µM) | relative viability (Axitinib + Olaparib; first compound 0.5 µM) |
| --- | --- | --- | --- | --- | --- | --- | --- | --- | --- | --- | --- | --- | --- | --- | --- | --- | --- | --- | --- | --- |
| UMC-11 | 0.73 | 0.715 | 0.719 | 0.657 | 0.87 | 0.64 | 0.758 | 0.63 | 0.515 | 0.757 | 0.818 | 0.82 | 0.857 | 0.835 | 0.627 | 0.353 | 0.4 | 0.737 | 0.376 | 0.335 |
| PC-3 [JPC-3] |  | 0.648 |  | 0.614 | 0.487 | 0.98 | 0.998 | 0.884 | 0.814 | 0.849 | 0.729 |  | 0.672 | 0.715 | 0.853 | 1.16 |  | 1.19 | 1.12 | 1.44 |
| LU99A | 0.458 | 0.601 | 0.573 |  | 0.575 | 0.565 | 0.633 | 0.496 |  | 0.699 | 0.355 | 0.349 | 0.336 | 0.363 | 0.306 | 0.272 | 0.287 | 0.273 | 0.286 | 0.304 |
| CAL-12T | 0.295 | 0.331 | 0.274 |  | 0.268 |  | 0.656 | 0.58 | 0.5 | 0.555 | 0.385 | 0.393 | 0.513 | 0.492 | 0.396 | 0.736 | 0.716 | 0.736 | 0.698 | 0.701 |
| NCI-H2087 | 0.178 | 0.196 | 0.169 | 0.183 | 0.165 | 0.95 | 0.796 | 0.818 | 0.706 | 0.895 | 0.982 | 0.848 | 0.992 | 0.856 | 0.769 | 0.741 | 0.503 | 0.642 | 0.549 | 0.661 |
| LCLC-97TM1 |  | 0.167 | 0.191 |  | 0.18 |  | 0.45 | 0.277 |  | 0.306 | 0.145 | 0.229 | 0.206 | 0.247 | 0.172 | 0.433 | 0.436 | 0.446 | 0.37 | 0.496 |
| BEN | 1.13 | 0.993 | 1.12 | 1.14 | 1.29 | 0.878 | 1.03 | 1.05 | 0.84 | 1.34 | 0.547 | 0.536 | 0.533 | 0.516 | 0.515 | 1.17 | 1.42 | 0.903 | 1.02 | 1.07 |
| NCI-H727 | 0.374 | 0.403 | 0.388 | 0.409 | 0.361 | 0.789 | 0.78 | 0.823 | 0.556 | 0.673 | 0.486 | 0.426 | 0.485 | 0.397 | 0.492 | 0.59 | 0.756 | 0.759 | 0.665 | 0.652 |

Source: the supplement of paper PMC10307832
